Source: the NIST ThermoML archive (doi:10.1016/j.jct.2019.03.024)
Numbers after ± are expanded uncertainties.

What was measured:
[1] = 298.15 K, 86.5 kPa, Liquid
[2] = refractive index (Na D-line) (dimensionless); settings: 298.15 K; 86.5 kPa; Liquid; Standard Abbe refractometry

Question: With `CCCCCCCCn1cc[n+](C)c1.[Br-]` [1-methyl-3-octylimidazolium bromide] as the molecule, how does the speed of sound ([1]; Frequency=3 MHz, Single path-length method) read?
Answer: The speed of sound was 1561.8 ± 2.2 m/s.

Question: And the mass density ([1]; Vibrating tube method)?
Answer: The mass density was 1172.98 ± 2.3 kg/m3.

Question: And the refractive index [2]?
Answer: The refractive index was 1.5217 ± 0.02.
